Laboratory results published in patent publication US20250115620A1, “BRIDGED TRICYCLIC CARBAMOYLPYRIDONE COMPOUNDS AND USES THEREOF” (Gilead Sciences, Inc., priority 2022, published 2025).
Like-named read-outs stand apart in the source and are kept apart here.

Tests used:
HIV-1 (IIIB) = experiment: microbe, parasite or virus in culture; type: cell-based; conditions: Human immunodeficiency virus 1, IIIB, MT4, 120 h, HIV-1 (IIIB) in MT-4 cells, 5 days incubation, Cell Titer Glo; read-out: MT4 EC50
pLAI reporter virus = experiment: microbe, parasite or virus in culture; type: cell-based, HIV; conditions: Human immunodeficiency virus 1, MT4, 72 h
in vitro = conditions: human, uninfected MT-4 cells

C[C@H]1CC[C@@]2(Cc3ccccc3O2)[C@H]2CN1C(=O)c1c(O)c(=O)c(C(=O)NCc3c(F)cc(F)cc3F)cn12 [Example 144, (2R,3′S,7′R)-12′-hydroxy-3′-methyl-1′,11′-dioxo-N-(2,4,6-trifluorobenzyl)-1′,4′,5′,11′-tetrahydro-3H,3′H,7′H-spiro[benzofuran-2,6′-[2,7]methanopyrido[1,2-a][1,4]diazonine]-10′-carboxamide]
EC50 (HIV-1 (IIIB)): 1.3 nM | EC50 (pLAI reporter virus; read-out: RLUC 50% HS EC50): 2.3 nM | EC50 (pLAI reporter virus; read-out: RLUC CCM EC50): 0.1 nM | CC50 at 5 days (in vitro): 4810 nM

COC1=NS[C@]2(CC[C@H](C)N3C[C@H]2n2cc(C(=O)NCc4ccc(F)cc4F)c(=O)c(O)c2C3=O)C1 [Example 145, (3′S,5R,7′R)—N-(2,4-difluorobenzyl)-12′-hydroxy-3-methoxy-3′-methyl-1′,11′-dioxo-1′,4′,5′,11′-tetrahydro-3′H,4H,7′H-spiro[isothiazole-5,6′-[2,7]methanopyrido[1,2-a][1,4]diazonine]-10′-carboxamide]
EC50 (HIV-1 (IIIB)): 3.8 nM | EC50 (pLAI reporter virus; read-out: RLUC 50% HS EC50): 7.5 nM | EC50 (pLAI reporter virus; read-out: RLUC CCM EC50): 1.1 nM | CC50 at 5 days (in vitro): ≥ 50000 nM

COc1ccc(CN2C(C)=NO[C@@]23CC[C@H](C)N2C[C@H]3n3cc(C(=O)NCc4ccc(F)cc4F)c(=O)c(O)c3C2=O)cc1 [Example 147, (3′S,5R,7′R)—N-(2,4-difluorobenzyl)-12′-hydroxy-4-(4-methoxybenzyl)-3,3′-dimethyl-1′,11′-dioxo-1′,4′,5′,11′-tetrahydro-3′H,4H,7′H-spiro[[1,2,4]oxadiazole-5,6′-[2,7]methanopyrido[1,2-a][1,4]diazonine]-10′-carboxamide]
EC50 (HIV-1 (IIIB)): 4.1 nM | EC50 (pLAI reporter virus; read-out: RLUC 50% HS EC50): 12.3 nM | EC50 (pLAI reporter virus; read-out: RLUC CCM EC50): 1.3 nM | CC50 at 5 days (in vitro): 7530 nM

CC1=NO[C@@]2(CC[C@H](C)N3C[C@H]2n2cc(C(=O)NCc4ccc(F)cc4F)c(=O)c(O)c2C3=O)N1 [Example 148, (3′S,5R,7′R)—N-(2,4-difluorobenzyl)-12′-hydroxy-3,3′-dimethyl-1′,11′-dioxo-1′,4′,5′,11′-tetrahydro-3′H,4H,7′H-spiro[[1,2,4]oxadiazole-5,6′-[2,7]methanopyrido[1,2-a][1,4]diazonine]-10′-carboxamide]
EC50 (HIV-1 (IIIB)): 3.4 nM | EC50 (pLAI reporter virus; read-out: RLUC 50% HS EC50): 21 nM | EC50 (pLAI reporter virus; read-out: RLUC CCM EC50): 1.1 nM | CC50 at 5 days (in vitro): ≥ 50000 nM

CC1=NO[C@@]2(CC[C@H](C)N3C[C@H]2n2cc(C(=O)NCc4ccc(F)cc4F)c(=O)c(O)c2C3=O)N1C [Example 149a, (3′S,5R,7′R)—N-(2,4-difluorobenzyl)-12′-hydroxy-3,3′,4-trimethyl-1′,11′-dioxo-1′,4′,5′,11′-tetrahydro-3′H,4H,7′H-spiro[[1,2,4]oxadiazole-5,6′-[2,7]methanopyrido[1,2-a][1,4]diazonine]-10′-carboxamide]
EC50 (HIV-1 (IIIB)): 2 nM | EC50 (pLAI reporter virus; read-out: RLUC 50% HS EC50): 4.8 nM | EC50 (pLAI reporter virus; read-out: RLUC CCM EC50): 0.8 nM | CC50 at 5 days (in vitro): ≥ 50000 nM

CC1=N[C@]2(CC[C@H](C)N3C[C@H]2n2cc(C(=O)NCc4ccc(F)cc4F)c(=O)c(O)c2C3=O)ON1C [Example 149b, (3′S,5R,7′R)—N-(2,4-difluorobenzyl)-12′-hydroxy-2,3,3′-trimethyl-1′,11′-dioxo-1′,4′,5′,11′-tetrahydro-2H,3′H,7′H-spiro[[1,2,4]oxadiazole-5,6′-[2,7]methanopyrido[1,2-a][1,4]diazonine]-10′-carboxamide]
EC50 (HIV-1 (IIIB)): 1.4 nM | EC50 (pLAI reporter virus; read-out: RLUC 50% HS EC50): 5.7 nM | EC50 (pLAI reporter virus; read-out: RLUC CCM EC50): 0.4 nM | CC50 at 5 days (in vitro): 39100 nM

[2H]C([2H])([2H])OC1=NO[C@@]2(CC[C@H](C)N3C[C@H]2n2cc(C(=O)NCc4ccc(F)cc4F)c(=O)c(O)c2C3=O)C1 [Example 153, (3′S,5S,7′R)—N-(2,4-difluorobenzyl)-12′-hydroxy-3-(methoxy-d3)-3′-methyl-1′,11′-dioxo-1′,4′,5′,11′-tetrahydro-3′H,4H,7′H-spiro[isoxazole-5,6′-[2,7]methanopyrido[1,2-a][1,4]diazonine]-10′-carboxamide]
EC50 (HIV-1 (IIIB)): 0.9 nM | EC50 (pLAI reporter virus; read-out: RLUC 50% HS EC50): 16.1 nM | EC50 (pLAI reporter virus; read-out: RLUC CCM EC50): 0.2 nM | CC50 at 5 days (in vitro): 17600 nM

C[C@H]1CC[C@]2(CC(S(C)(=O)=O)=NO2)[C@H]2CN1C(=O)c1c(O)c(=O)c(C(=O)NCc3c(F)cc(F)cc3F)cn12 [Example 154, (3′S,5S,7′R)-12′-hydroxy-3′-methyl-3-(methylsulfonyl)-1′,11′-dioxo-N-(2,4,6-trifluorobenzyl)-1′,4′,5′,11′-tetrahydro-3′H,4H,7′H-spiro[isoxazole-5,6′-[2,7]methanopyrido[1,2-a][1,4]diazonine]-10′-carboxamide]
EC50 (HIV-1 (IIIB)): 4.2 nM | EC50 (pLAI reporter virus; read-out: RLUC 50% HS EC50): 22.1 nM | EC50 (pLAI reporter virus; read-out: RLUC CCM EC50): 1.2 nM | CC50 at 5 days (in vitro): 4140 nM

CC1=NO[C@@]2(CC[C@H](CF)N3C[C@H]2n2cc(C(=O)NCc4ccc(F)cc4F)c(=O)c(O)c2C3=O)C1 [Example 155, (3′R,5S,7′R)—N-(2,4-difluorobenzyl)-3′-(fluoromethyl)-12′-hydroxy-3-methyl-1′,11′-dioxo-1′,4′,5′,11′-tetrahydro-3′H,4H,7′H-spiro[isoxazole-5,6′-[2,7]methanopyrido[1,2-a][1,4]diazonine]-10′-carboxamide]
EC50 (HIV-1 (IIIB)): 1 nM | EC50 (pLAI reporter virus; read-out: RLUC 50% HS EC50): 59.8 nM | EC50 (pLAI reporter virus; read-out: RLUC CCM EC50): 0.5 nM | CC50 at 5 days (in vitro): 28400 nM

C[C@H]1CC[C@]2(CC(=O)NO2)[C@H]2CN1C(=O)c1c(O)c(=O)c(C(=O)NCc3ccc(F)cc3F)cn12 [Example 156, (3′S,5S,7′R)—N-(2,4-difluorobenzyl)-12′-hydroxy-3′-methyl-1′,3,11′-trioxo-1′,4′,5′,11′-tetrahydro-3′H,7′H-spiro[isoxazolidine-5,6′-[2,7]methanopyrido[1,2-a][1,4]diazonine]-10′-carboxamide]
EC50 (HIV-1 (IIIB)): 18.1 nM | EC50 (pLAI reporter virus; read-out: RLUC 50% HS EC50): 79.8 nM | EC50 (pLAI reporter virus; read-out: RLUC CCM EC50): 25 nM | CC50 at 5 days (in vitro): ≥ 50000 nM

CCN1O[C@@]2(CC[C@H](C)N3C[C@H]2n2cc(C(=O)NCc4c(F)cc(F)cc4F)c(=O)c(O)c2C3=O)CC1=O [Example 157, (3′S,5S,7′R)-2-ethyl-12′-hydroxy-3′-methyl-1′,3,11′-trioxo-N-(2,4,6-trifluorobenzyl)-1′,4′,5′,11′-tetrahydro-3′H,7′H-spiro[isoxazolidine-5,6′-[2,7]methanopyrido[1,2-a][1,4]diazonine]-10′-carboxamide]
EC50 (HIV-1 (IIIB)): 1.1 nM | EC50 (pLAI reporter virus; read-out: RLUC 50% HS EC50): 4.1 nM | EC50 (pLAI reporter virus; read-out: RLUC CCM EC50): 0.3 nM | CC50 at 5 days (in vitro): ≥ 50000 nM

C[C@H]1CC[C@]2(CC(=O)N(Cc3ccc(Br)cc3)O2)[C@H]2CN1C(=O)c1c(O)c(=O)c(C(=O)NCc3c(F)cc(F)cc3F)cn12 [Example 158, (3′S,5S,7′R)-2-(4-bromobenzyl)-12′-hydroxy-3′-methyl-1′,3,11′-trioxo-N-(2,4,6-trifluorobenzyl)-1′,4′,5′,11′-tetrahydro-3′H,7′H-spiro[isoxazolidine-5,6′-[2,7]methanopyrido[1,2-a][1,4]diazonine]-10′-carboxamide]
EC50 (HIV-1 (IIIB)): 1.7 nM | EC50 (pLAI reporter virus; read-out: RLUC 50% HS EC50): 3.2 nM | EC50 (pLAI reporter virus; read-out: RLUC CCM EC50): 0.8 nM | CC50 at 5 days (in vitro): 2120 nM

C[C@H]1CC[C@]2(CC(=O)N(Cc3ccccn3)O2)[C@H]2CN1C(=O)c1c(O)c(=O)c(C(=O)NCc3c(F)cc(F)cc3F)cn12 [Example 159, (3′S,5S,7′R)-12′-hydroxy-3′-methyl-1′,3,11′-trioxo-2-(pyridin-2-ylmethyl)-N-(2,4,6-trifluorobenzyl)-1′,4′,5′,11′-tetrahydro-3′H,7′H-spiro[isoxazolidine-5,6′-[2,7]methanopyrido[1,2-a][1,4]diazonine]-10′-carboxamide]
EC50 (HIV-1 (IIIB)): 1.8 nM | EC50 (pLAI reporter virus; read-out: RLUC 50% HS EC50): 1.1 nM | EC50 (pLAI reporter virus; read-out: RLUC CCM EC50): 0.8 nM | CC50 at 5 days (in vitro): ≥ 50000 nM

C[C@H]1CC[C@]2(CC(=O)N(Cc3cccnc3)O2)[C@H]2CN1C(=O)c1c(O)c(=O)c(C(=O)NCc3c(F)cc(F)cc3F)cn12 [Example 160, (3′S,5S,7′R)-12′-hydroxy-3′-methyl-1′,3,11′-trioxo-2-(pyridin-3-ylmethyl)-N-(2,4,6-trifluorobenzyl)-1′,4′,5′,11′-tetrahydro-3′H,7′H-spiro[isoxazolidine-5,6′-[2,7]methanopyrido[1,2-a][1,4]diazonine]-10′-carboxamide]
EC50 (HIV-1 (IIIB)): 1.5 nM | EC50 (pLAI reporter virus; read-out: RLUC 50% HS EC50): 0.5 nM | EC50 (pLAI reporter virus; read-out: RLUC CCM EC50): 1.6 nM | CC50 at 5 days (in vitro): ≥ 50000 nM

C[C@H]1CC[C@]2(CC(=O)N(Cc3nc4ccccc4s3)O2)[C@H]2CN1C(=O)c1c(O)c(=O)c(C(=O)NCc3c(F)cc(F)cc3F)cn12 [Example 161, (3′S,5S,7′R)-2-(benzo[d]thiazol-2-ylmethyl)-12′-hydroxy-3′-methyl-1′,3,11′-trioxo-N-(2,4,6-trifluorobenzyl)-1′,4′,5′,11′-tetrahydro-3′H,7′H-spiro[isoxazolidine-5,6′-[2,7]methanopyrido[1,2-a][1,4]diazonine]-10′-carboxamide]
EC50 (HIV-1 (IIIB)): 1.4 nM | EC50 (pLAI reporter virus; read-out: RLUC 50% HS EC50): 0.9 nM | EC50 (pLAI reporter virus; read-out: RLUC CCM EC50): 0.4 nM | CC50 at 5 days (in vitro): ≥ 50000 nM

C[C@H]1CC[C@]2(CC(=O)N(Cc3nc4ccccc4[nH]3)O2)[C@H]2CN1C(=O)c1c(O)c(=O)c(C(=O)NCc3c(F)cc(F)cc3F)cn12 [Example 162, (3′S,5S,7′R)-2-((1H-benzo[d]imidazol-2-yl)methyl)-12′-hydroxy-3′-methyl-1′,3,11′-trioxo-N-(2,4,6-trifluorobenzyl)-1′,4′,5′,11′-tetrahydro-3′H,7′H-spiro[isoxazolidine-5,6′-[2,7]methanopyrido[1,2-a][1,4]diazonine]-10′-carboxamide]
EC50 (HIV-1 (IIIB)): 3.6 nM | EC50 (pLAI reporter virus; read-out: RLUC 50% HS EC50): 5.7 nM | EC50 (pLAI reporter virus; read-out: RLUC CCM EC50): 1.4 nM | CC50 at 5 days (in vitro): ≥ 50000 nM

C[C@H]1CC[C@]2(CC(=O)N(Cc3nc4ccccc4n3C)O2)[C@H]2CN1C(=O)c1c(O)c(=O)c(C(=O)NCc3c(F)cc(F)cc3F)cn12 [Example 163, (3′S,5S,7′R)-12′-hydroxy-3′-methyl-2-((1-methyl-1H-benzo[d]imidazol-2-yl)methyl)-1′,3,11′-trioxo-N-(2,4,6-trifluorobenzyl)-1′,4′,5′,11′-tetrahydro-3′H,7′H-spiro[isoxazolidine-5,6′-[2,7]methanopyrido[1,2-a][1,4]diazonine]-10′-carboxamide]
EC50 (HIV-1 (IIIB)): 1.5 nM | EC50 (pLAI reporter virus; read-out: RLUC 50% HS EC50): 2 nM | EC50 (pLAI reporter virus; read-out: RLUC CCM EC50): 0.9 nM | CC50 at 5 days (in vitro): ≥ 50000 nM
